Reference: ChEMBL document CHEMBL1149344, “Discovery of aminoquinazolines as potent, orally bioavailable inhibitors of Lck: synthesis, SAR, and in vivo anti-inflammatory activity” (J Med Chem, 2006)
In brackets after ≈: the same amount, converted by molar mass.

Experiments:
[1] = molecular target: Mitogen-activated protein kinase 14 (Homo sapiens, UniProt Q16539); assay: Inhibition of p38-alpha by HTRF kinase assay
[2] = molecular target: T1, Tyrosine-protein kinase JAK3 (Homo sapiens, UniProt P52333); assay: Inhibition of Jak3 by HTRF kinase assay
T1 sequence (P52333 whole entry): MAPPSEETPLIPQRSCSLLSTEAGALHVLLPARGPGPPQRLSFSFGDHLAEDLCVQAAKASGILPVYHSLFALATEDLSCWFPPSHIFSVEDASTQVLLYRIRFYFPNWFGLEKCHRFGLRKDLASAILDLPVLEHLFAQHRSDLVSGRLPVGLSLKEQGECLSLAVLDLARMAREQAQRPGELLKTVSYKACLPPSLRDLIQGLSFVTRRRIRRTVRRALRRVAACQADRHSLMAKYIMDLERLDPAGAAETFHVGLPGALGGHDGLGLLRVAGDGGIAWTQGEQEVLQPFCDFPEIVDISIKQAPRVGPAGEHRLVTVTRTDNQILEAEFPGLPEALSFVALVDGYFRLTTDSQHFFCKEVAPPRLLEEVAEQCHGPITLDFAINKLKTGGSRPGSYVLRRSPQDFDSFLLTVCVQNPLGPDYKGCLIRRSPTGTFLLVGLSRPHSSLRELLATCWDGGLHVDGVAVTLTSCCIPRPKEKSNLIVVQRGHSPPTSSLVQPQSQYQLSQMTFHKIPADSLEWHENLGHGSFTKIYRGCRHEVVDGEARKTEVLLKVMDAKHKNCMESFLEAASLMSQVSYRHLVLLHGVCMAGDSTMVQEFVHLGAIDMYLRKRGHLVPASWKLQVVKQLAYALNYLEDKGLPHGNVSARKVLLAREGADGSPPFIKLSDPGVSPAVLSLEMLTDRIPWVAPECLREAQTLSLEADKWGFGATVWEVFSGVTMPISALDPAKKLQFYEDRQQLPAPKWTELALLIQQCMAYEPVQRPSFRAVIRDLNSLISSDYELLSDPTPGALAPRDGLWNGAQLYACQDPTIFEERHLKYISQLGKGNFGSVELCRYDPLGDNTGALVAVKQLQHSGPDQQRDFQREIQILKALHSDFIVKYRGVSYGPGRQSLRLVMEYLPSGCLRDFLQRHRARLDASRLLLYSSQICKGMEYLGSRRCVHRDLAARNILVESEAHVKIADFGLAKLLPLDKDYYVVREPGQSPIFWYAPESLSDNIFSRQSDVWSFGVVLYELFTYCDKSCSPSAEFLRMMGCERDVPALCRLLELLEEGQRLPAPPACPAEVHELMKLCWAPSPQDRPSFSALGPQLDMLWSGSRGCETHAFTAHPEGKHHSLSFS

[3] = Solubility in fasted state simulated intestinal fluid at pH 6.8; type: physicochemical; settings: read-out: Solubility
[4] = species: Homo sapiens; assay: Inhibition of anti CD3-induced IL2 production in human whole blood; type: functional
[5] = species: Homo sapiens; assay: Inhibition of […] TNF alpha production in human whole blood; type: functional
[6] = Protein binding in mouse plasma; type: ADME; settings: read-out: PPB (converted)
[7] = test system: Mus musculus; assay: Inhibition of anti CD3-induced IL2 production in BALB/c mouse at 10 mg/kg, po relative to control; type: functional
[8] = test system: Mus musculus; assay: Inhibition of anti CD3-induced IL2 production in BALB/c mouse at 30 mg/kg, po relative to control; type: functional
[9] = test system: Mus musculus; assay: Inhibition of anti CD3-induced IL2 production in BALB/c mouse at 100 mg/kg, po relative to control; type: functional
[10] = test system: Mus musculus; assay: Mean terminal plasma concentration in BALB/c mouse at 11 mg/kg, po after […]; type: ADME, organism-based; parameters: dose 11 mg/kg, route oral
[11] = test system: Mus musculus; assay: Unbound plasma concentration in po dosed BALB/c mouse; type: ADME, organism-based
[12] = Clearance in Sprague-Dawley rat at 1 mg/kg, iv; type: ADME, organism-based; parameters: dose 1 mg/kg, route intravenous; settings: in vivo
[13] = AUC (0-infinity) in Sprague-Dawley rat at 5 mg/kg, po; type: ADME, organism-based; parameters: time infinity, dose 5 mg/kg, route oral; settings: plasma
[14] = Cmax in Sprague-Dawley rat at 5 mg/kg, po; type: ADME, organism-based; parameters: dose 5 mg/kg, route oral; settings: in vivo
[15] = Tmax in Sprague-Dawley rat at 5 mg/kg, po; type: ADME, organism-based; parameters: dose 5 mg/kg, route oral; settings: in vivo
[16] = Bioavailability in Sprague-Dawley rat at 5 mg/kg, po; type: ADME, organism-based; settings: in vivo
[17] = molecular target: Proto-oncogene tyrosine-protein kinase Src (Homo sapiens, UniProt P12931); assay: Inhibition of Src by HTRF kinase assay
[18] = molecular target: Tyrosine-protein kinase SYK (Homo sapiens, UniProt P43405); assay: Inhibition of Syk by HTRF kinase assay
[19] = molecular target: Non-receptor tyrosine-protein kinase TYK2 (Homo sapiens, UniProt P29597); assay: Inhibition of Tyk2 by HTRF kinase assay
Sequence of Non-receptor tyrosine-protein kinase TYK2 (P29597 whole entry): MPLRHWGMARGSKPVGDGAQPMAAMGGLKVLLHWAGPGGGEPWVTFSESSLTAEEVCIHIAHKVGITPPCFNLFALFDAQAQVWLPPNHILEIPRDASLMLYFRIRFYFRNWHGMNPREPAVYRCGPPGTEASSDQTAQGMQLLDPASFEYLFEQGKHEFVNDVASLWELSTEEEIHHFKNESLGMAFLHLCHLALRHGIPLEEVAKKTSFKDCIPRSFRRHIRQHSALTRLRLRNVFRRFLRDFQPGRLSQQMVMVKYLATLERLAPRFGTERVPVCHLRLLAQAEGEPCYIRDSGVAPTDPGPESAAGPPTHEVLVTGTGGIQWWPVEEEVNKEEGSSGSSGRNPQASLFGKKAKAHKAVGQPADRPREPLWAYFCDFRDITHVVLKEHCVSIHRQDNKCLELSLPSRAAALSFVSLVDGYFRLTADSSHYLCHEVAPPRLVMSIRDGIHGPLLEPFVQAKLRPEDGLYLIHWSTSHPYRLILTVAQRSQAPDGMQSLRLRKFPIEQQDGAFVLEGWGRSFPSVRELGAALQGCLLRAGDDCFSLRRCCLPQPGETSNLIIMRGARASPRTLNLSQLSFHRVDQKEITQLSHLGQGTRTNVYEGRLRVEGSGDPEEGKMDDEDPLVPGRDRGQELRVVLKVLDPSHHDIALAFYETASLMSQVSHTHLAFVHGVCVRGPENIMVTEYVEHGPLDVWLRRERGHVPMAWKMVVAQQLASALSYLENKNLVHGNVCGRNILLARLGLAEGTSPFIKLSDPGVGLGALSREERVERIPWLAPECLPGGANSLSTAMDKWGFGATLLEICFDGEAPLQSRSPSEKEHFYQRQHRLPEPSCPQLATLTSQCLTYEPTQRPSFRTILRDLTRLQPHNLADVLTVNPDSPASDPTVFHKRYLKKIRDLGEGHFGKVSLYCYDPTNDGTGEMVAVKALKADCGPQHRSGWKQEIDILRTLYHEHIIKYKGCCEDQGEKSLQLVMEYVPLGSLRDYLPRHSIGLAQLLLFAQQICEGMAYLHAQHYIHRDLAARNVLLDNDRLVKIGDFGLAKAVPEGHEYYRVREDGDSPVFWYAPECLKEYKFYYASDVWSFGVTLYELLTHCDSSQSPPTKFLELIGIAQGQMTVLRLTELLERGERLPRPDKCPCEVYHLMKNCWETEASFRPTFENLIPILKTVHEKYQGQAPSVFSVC

[20] = molecular target: Tyrosine-protein kinase ITK/TSK (Homo sapiens, UniProt Q08881); assay: Inhibition of Itk by HTRF kinase assay
Sequence of Tyrosine-protein kinase ITK/TSK (Q08881 whole entry): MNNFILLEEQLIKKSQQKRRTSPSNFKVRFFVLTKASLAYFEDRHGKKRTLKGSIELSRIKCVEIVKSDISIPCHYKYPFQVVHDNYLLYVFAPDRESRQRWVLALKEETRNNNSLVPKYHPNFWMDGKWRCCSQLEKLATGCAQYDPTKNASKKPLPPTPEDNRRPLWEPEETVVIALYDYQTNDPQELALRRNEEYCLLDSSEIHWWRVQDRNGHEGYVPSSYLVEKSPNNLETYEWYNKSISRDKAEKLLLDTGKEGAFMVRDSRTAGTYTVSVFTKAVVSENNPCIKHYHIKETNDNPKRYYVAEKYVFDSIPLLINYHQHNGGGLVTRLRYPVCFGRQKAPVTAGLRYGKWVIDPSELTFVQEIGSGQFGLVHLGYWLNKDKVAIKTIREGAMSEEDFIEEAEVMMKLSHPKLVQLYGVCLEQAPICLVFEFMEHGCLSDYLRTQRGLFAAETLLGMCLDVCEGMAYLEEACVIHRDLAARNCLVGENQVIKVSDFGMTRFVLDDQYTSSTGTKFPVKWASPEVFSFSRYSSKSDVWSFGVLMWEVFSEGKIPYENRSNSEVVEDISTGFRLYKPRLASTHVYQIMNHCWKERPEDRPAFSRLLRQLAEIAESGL

[21] = molecular target: Cyclin-dependent kinase 5 (Homo sapiens, UniProt Q00535); assay: Inhibition of CDK5 by HTRF kinase assay
[22] = molecular target: Ribosomal protein S6 kinase alpha-5 (Homo sapiens, UniProt O75582); assay: Inhibition of MSK1 by HTRF kinase assay
Sequence of Ribosomal protein S6 kinase alpha-5 (O75582 whole entry): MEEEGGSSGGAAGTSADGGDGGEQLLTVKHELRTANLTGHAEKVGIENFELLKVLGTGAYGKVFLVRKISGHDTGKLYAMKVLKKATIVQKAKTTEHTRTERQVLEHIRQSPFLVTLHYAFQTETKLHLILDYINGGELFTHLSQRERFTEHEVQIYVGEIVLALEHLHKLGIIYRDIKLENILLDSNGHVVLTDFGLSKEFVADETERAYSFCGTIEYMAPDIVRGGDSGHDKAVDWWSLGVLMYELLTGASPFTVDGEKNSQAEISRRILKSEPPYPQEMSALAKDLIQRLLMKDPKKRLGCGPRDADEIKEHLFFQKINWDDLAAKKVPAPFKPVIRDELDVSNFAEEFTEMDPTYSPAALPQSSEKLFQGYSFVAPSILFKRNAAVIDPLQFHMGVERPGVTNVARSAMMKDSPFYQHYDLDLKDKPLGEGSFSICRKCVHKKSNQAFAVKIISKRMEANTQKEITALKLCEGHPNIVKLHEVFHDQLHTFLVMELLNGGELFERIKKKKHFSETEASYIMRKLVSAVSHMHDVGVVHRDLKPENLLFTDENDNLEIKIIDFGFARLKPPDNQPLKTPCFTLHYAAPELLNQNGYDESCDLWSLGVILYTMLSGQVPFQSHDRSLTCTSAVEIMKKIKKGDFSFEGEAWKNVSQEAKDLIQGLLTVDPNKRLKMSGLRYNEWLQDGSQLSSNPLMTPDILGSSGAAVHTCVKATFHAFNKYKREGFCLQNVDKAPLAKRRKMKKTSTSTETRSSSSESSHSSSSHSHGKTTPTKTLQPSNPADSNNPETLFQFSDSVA

[23] = molecular target: Serine/threonine-protein kinase PAK 2 (Homo sapiens, UniProt Q13177); assay: Inhibition of Pak2 by HTRF kinase assay
[24] = molecular target: Mitogen-activated protein kinase 8 (Homo sapiens, UniProt P45983); assay: Inhibition of JNK1 by HTRF kinase assay
[25] = molecular target: Mitogen-activated protein kinase 9 (Homo sapiens, UniProt P45984); assay: Inhibition of JNK2 by HTRF kinase assay
[26] = molecular target: Mitogen-activated protein kinase 10 (Homo sapiens, UniProt P53779); assay: Inhibition of JNK3 by HTRF kinase assay
Sequence of Mitogen-activated protein kinase 10 (P53779 whole entry): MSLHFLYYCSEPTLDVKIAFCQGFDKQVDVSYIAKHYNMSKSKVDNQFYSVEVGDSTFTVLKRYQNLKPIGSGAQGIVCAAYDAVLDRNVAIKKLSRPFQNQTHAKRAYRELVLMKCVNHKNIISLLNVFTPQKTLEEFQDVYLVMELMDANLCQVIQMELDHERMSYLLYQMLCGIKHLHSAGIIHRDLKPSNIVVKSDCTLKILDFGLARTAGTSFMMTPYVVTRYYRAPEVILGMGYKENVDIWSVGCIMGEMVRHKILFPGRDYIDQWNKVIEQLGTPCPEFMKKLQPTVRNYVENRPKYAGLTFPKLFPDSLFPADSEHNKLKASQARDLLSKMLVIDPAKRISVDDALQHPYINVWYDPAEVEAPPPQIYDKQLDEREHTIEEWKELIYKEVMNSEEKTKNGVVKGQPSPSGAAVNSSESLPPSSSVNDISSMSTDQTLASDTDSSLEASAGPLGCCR

[27] = molecular target: RAC-alpha serine/threonine-protein kinase (Homo sapiens, UniProt P31749); assay: Inhibition of PKBalpha by HTRF kinase assay
Sequence of RAC-alpha serine/threonine-protein kinase (P31749 whole entry): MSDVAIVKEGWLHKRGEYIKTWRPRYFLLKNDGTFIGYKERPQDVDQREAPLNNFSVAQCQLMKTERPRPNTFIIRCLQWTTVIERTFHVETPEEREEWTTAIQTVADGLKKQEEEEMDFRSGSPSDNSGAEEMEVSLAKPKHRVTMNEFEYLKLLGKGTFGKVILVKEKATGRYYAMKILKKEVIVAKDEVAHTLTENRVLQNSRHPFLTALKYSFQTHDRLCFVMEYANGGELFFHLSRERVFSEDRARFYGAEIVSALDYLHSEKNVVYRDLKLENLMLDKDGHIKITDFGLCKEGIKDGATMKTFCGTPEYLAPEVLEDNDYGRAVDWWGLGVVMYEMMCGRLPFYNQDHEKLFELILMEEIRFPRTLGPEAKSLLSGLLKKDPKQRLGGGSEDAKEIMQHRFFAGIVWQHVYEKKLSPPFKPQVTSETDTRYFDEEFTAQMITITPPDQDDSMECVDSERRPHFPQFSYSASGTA

[28] = molecular target: Tyrosine-protein kinase ZAP-70 (Homo sapiens, UniProt P43403); assay: Inhibition of Zap70 by HTRF kinase assay
Sequence of Tyrosine-protein kinase ZAP-70 (P43403 whole entry): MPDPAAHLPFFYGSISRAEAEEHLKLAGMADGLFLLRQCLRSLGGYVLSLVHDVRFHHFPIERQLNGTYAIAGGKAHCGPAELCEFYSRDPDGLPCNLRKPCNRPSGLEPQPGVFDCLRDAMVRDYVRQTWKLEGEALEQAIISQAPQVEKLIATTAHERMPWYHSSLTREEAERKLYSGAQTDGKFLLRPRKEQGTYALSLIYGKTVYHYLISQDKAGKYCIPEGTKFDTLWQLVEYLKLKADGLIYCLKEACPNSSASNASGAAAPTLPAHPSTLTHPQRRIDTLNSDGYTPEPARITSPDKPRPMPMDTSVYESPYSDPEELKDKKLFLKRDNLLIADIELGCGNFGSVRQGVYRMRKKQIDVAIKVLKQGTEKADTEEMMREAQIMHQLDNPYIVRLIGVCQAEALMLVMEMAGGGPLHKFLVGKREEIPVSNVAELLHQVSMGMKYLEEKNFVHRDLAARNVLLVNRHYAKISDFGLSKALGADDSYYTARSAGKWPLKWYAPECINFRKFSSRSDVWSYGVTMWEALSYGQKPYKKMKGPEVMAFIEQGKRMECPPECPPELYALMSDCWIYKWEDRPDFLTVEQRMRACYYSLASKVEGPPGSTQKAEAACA

[29] = Volume of distribution in Sprague-Dawley rat at 1 mg/kg, iv; type: ADME, organism-based; parameters: dose 1 mg/kg, route intravenous; settings: in vivo, read-out: Vss
[30] = Half life in Sprague-Dawley rat at 1 mg/kg, iv; type: ADME, organism-based; parameters: dose 1 mg/kg, route intravenous; settings: in vivo
[31] = test system: T-cell; assay: Inhibition of human T cell proliferation by mixed lymphocyte reaction
[32] = test system: T-cell; assay: Inhibition of anti CD3/CD28-induced IL2 secretion in human T cells; type: functional, cell-based
[33] = molecular target: Tyrosine-protein kinase Lck (Homo sapiens, UniProt P06239)
Sequence of Tyrosine-protein kinase Lck (P06239 whole entry): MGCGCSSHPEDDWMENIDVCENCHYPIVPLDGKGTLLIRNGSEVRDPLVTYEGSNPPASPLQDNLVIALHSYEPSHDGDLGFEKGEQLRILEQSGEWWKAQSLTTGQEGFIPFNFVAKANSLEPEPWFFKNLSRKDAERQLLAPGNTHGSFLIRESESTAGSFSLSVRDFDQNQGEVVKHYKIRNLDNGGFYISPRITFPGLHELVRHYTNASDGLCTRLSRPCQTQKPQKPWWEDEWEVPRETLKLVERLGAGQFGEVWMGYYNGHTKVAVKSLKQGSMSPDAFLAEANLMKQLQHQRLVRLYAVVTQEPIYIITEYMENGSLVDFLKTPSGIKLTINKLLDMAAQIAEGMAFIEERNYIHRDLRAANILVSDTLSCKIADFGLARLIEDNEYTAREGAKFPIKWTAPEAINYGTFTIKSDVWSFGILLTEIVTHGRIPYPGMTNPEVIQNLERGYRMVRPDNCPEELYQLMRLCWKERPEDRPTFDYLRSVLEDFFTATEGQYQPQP
Description: Inhibition of Lck by HTRF kinase assay

[34] = molecular target: Tyrosine-protein kinase BTK (Homo sapiens, UniProt Q06187); assay: Inhibition of Btk by HTRF kinase assay
[35] = molecular target: Vascular endothelial growth factor receptor 2 (Homo sapiens, UniProt P35968); assay: Inhibition of KDR by HTRF kinase assay
[36] = test system: Mus musculus; assay: Mean terminal plasma concentration in BALB/c mouse at 22 mg/kg, po after […]; type: ADME, organism-based; parameters: dose 22 mg/kg, route oral
[37] = Clearance in Sprague-Dawley rat at 5 mg/kg, iv; type: ADME, organism-based; parameters: dose 5 mg/kg, route intravenous; settings: in vivo
[38] = AUC (0-infinity) in Sprague-Dawley rat at 2 mg/kg, po; type: ADME, organism-based; parameters: time infinity, dose 2 mg/kg, route oral; settings: plasma
[39] = molecular target: cAMP-dependent protein kinase catalytic subunit beta (Homo sapiens, UniProt P22694); assay: Inhibition of PKAbeta by HTRF kinase assay
[40] = Volume of distribution in Sprague-Dawley rat at 5 mg/kg, iv; type: ADME, organism-based; parameters: dose 5 mg/kg, route intravenous; settings: in vivo, read-out: Vss
[41] = Half life in Sprague-Dawley rat at 5 mg/kg, iv; type: ADME, organism-based; parameters: dose 5 mg/kg, route intravenous; settings: in vivo
[42] = Cmax in Sprague-Dawley rat at 2 mg/kg, po; type: ADME, organism-based; parameters: dose 2 mg/kg, route oral; settings: in vivo
[43] = Tmax in Sprague-Dawley rat at 2 mg/kg, po; type: ADME, organism-based; parameters: dose 2 mg/kg, route oral; settings: in vivo
[44] = Bioavailability in Sprague-Dawley rat at 2 mg/kg, po; type: ADME, organism-based; settings: in vivo

Sequence of Mitogen-activated protein kinase 14 (Q16539 whole entry): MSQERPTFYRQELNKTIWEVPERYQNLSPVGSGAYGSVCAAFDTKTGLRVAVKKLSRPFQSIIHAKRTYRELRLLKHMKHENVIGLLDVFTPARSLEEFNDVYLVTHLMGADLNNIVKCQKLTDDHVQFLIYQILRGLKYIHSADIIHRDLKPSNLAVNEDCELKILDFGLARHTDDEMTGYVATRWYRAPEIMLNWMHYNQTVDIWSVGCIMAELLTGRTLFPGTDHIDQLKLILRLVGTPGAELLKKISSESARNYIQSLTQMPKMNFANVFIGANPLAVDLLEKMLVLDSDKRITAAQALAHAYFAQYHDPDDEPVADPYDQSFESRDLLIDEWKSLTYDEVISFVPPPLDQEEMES

Row | Structure (SMILES) | IC50 [1] [nM] | IC50 [2] [nM] | Activity [4] [µM] | Activity [5] [µM] | inhibition in vivo at 10 mg/kg [7] [%] | inhibition in vivo at 30 mg/kg [8] [%] | inhibition in vivo at 100 mg/kg [9] [%] | IC50 [17] [nM] | IC50 [18] [nM] | IC50 [19] [nM] | IC50 [20] [nM] | IC50 [21] [nM] | IC50 [22] [nM] | IC50 [23] [nM] | IC50 [24] [nM] | IC50 [25] [nM] | IC50 [26] [nM] | IC50 [27] [nM] | IC50 [28] [nM] | IC50 [31] [nM] | also measured
1 | Cc1ccc(C(=O)Nc2cccc(C(F)(F)F)c2)cc1-c1ccc2nc(NCCN3CCOCC3)ncc2c1 | 3 | 72 | 0.272 | >2.5 | 49 | 84 | 91 | 2 | 292 | 1830 | > 25000 | > 25000 | > 25000 | > 25000 | 389 | 173 | 145 | > 25000 | > 25000 | 30 | solubility [3]: 159 µg/mL (≈ 297 µM); fraction unbound [6]: 0.029; EC50 [10]: 630 nM; EC50 [11]: 18 nM; clearance [12]: 48 mL/min/kg; AUC(0-inf) [13]: 668 ng·h/mL; Cmax [14]: 128 ng/mL; Tmax [15]: 3 h; bioavailability [16]: 38%; Vd [29]: 5.04 L/kg; half-life [30]: 1.8 h; IC50 [32]: 21 nM; IC50 [33]: 0.2 nM
2 | CNc1ncc2cc(-c3cc(C(=O)Nc4cc(C(F)(F)F)ccc4OC4CCN(C)CC4)ccc3C)ccc2n1 | 9 | 868 | 0.113 | >2.5 | -3 | 72 | 96 | 17 | 1110 | 2730 | > 5000 | > 25000 | > 25000 | > 25000 | > 10000 | > 25000 | > 5000 | > 25000 | > 25000 | 243 | IC50 [34]: 3330 nM; IC50 [35]: 17 nM; EC50 [36]: 1400 nM; clearance [37]: 13.9 mL/min/kg; AUC(0-inf) [38]: 1370 ng·h/mL; IC50 [39]: > 25000 nM; Vd [40]: 7.63 L/kg; half-life [41]: 6.5 h; Cmax [42]: 121 ng/mL; Tmax [43]: 6 h; bioavailability [44]: 55%; IC50 [32]: 36 nM; IC50 [33]: 0.5 nM
